Test results from publication PMC10053118, “Laccase Production from Agrocybe pediades: Purification and Functional Characterization of a Consistent Laccase Isoenzyme in Liquid Culture” (Microorganisms, 2023).

Tested on: T1, extracellular laccase (laccI) of A. pediades
T1 construct: native, partially purified from culture filtrate (Sephacryl 200), glycosylated monomer, 72 kDa native, 55-60 kDa denatured
Experiment: spectrophotometric oxidation at […] nm, Michaelis-Menten nonlinear fit
Type: biochemical, Agrocybe pediades
Conditions: pH 5.0; 0-2 mM substrate; air oxygen as co-substrate; read-out: apparent Km

COc1cccc(OC)c1O [2,6-DMP, 2,6-dimethoxyphenol]
Km: 100 µM
